Results as given in patent US8232407B2, “Nitrogenous heterocyclic compounds with insecticidal activity, and the preparation and use thereof” (East China University of Science and Technology, priority 2008, dated 2012).

Assays:
Assay type in all cases: in vivo
[1] = test system: Aphis craccivoral; test: Insecticidal activities to aphids, immersion method; conditions: for mortality at 500 ppm: Aphis, read-out: Aphis craccivoral Mortality (%) 500 ppm
In short: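 Wingless adult aphids feeding on bean sprouts were dipped 5 s in 500 ppm compound (DMF stock diluted in 0.2 mL/L aqueous Triton X-100), blotted and held at 23° C. Dead counted at 24 h, three replicates; mortality corrected against Triton-only controls.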

[2] = test system: Nilaparvata lugens; test: Insecticidal activities to plant hopper, spraying method; conditions: for mortality at 500 ppm: Nilaparvata lugens, read-out: Nilaparvata lugens Mortality (%) 500 ppm
In short: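 Nilaparvata lugens, 10 insects per tumbler, sprayed with 2 ml compound in acetone at 0.79-500 ppm, three replicates, aqueous acetone control. Dead insects counted after 24 h; mortality corrected against control survival.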

[3] = test system: Pseudaletia separate Walker; test: Insecticidal activities to armyworm, leaf dipping and feeding
In short: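 Maize leaves dipped 3 s in acetone-formulated compound at 500 down to 1.57 ppm, dried and fed to armyworms, 10 insects per treatment in triplicate, aqueous acetone as control. Mortality was counted after 24 hours and corrected against control survival.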

[4] = test system: Plutella xylostella; test: Insecticidal activities to diamondback moth, feeding dipped leaves; conditions: for mortality at 500 ppm: Plutella xylostella, read-out: Plutella xylostella Mortality (%) 500 ppm
In short: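 Leaf-dip feeding assay: fresh cabbage leaves dipped 3 s in test solution, air-dried and fed to Plutella xylostella, 10 insects per treatment, three replicates, water control. Deaths counted after 24 h; mortality corrected against survival in the control group.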

[5] = 500 ppm, spraying method, counted after 24 hours
[6] = 500 ppm, leaf dipping and feeding, counted after 24 hours
[7] = 500 ppm, feeding dipped leaves, counted after 24 hours

Row | Structure (SMILES) | Aphis craccivoral Mortality (%) 500 ppm ([1]; in vivo) | Nilaparvata lugens Mortality (%) 500 ppm ([2]; in vivo) | Pseudaletia separate Walker Mortality (%) 500 ppm ([3]; in vivo) | Plutella xylostella Mortality (%) 500 ppm ([4]; in vivo) | mortality at 500 ppm ([1]; 500 ppm, immersion method) | mortality at 500 ppm [2, 5] | Pseudaletia separate Walker Mortality (%) 500 ppm [3, 6] | mortality at 500 ppm [4, 7] | Aphis craccivoral Mortality (%) 500 ppm ([1]; 500 ppm, immersion method) | Nilaparvata lugens Mortality (%) 500 ppm [2, 5] | Plutella xylostella Mortality (%) 500 ppm [4, 7]
1 | CC(c1ccc(Cl)nc1)N1CCN=C1C(=Cc1cccs1)[N+](=O)[O-] (racemic) [Compound 127] | 100% | 100% | 100% | 100% | – | – | – | – | – | – | –
2 | C[N+]1=C(C(=Cc2ccoc2)[N+](=O)[O-])N(Cc2cnc(Cl)s2)CC1.[Cl-] [Compound 276] | 100% | 100% | 100% | 100% | – | – | – | – | – | – | –
3 | CC(c1ccc(Cl)nc1)N1CCN=C1C(=Cc1ccoc1)[N+](=O)[O-] (racemic) [Compound 123] | 100% | 100% | 100% | 100% | – | – | – | – | – | – | –
4 | O=[N+]([O-])C(=Cc1cc(Cl)cs1)C1=NCCCN1Cc1ccc(Cl)nc1 [Compound 66] | 56% | 87% | 87% | 100% | – | – | – | – | – | – | –
5 | O=[N+]([O-])C(=Cc1cc(Br)co1)C1=NCCN1Cc1cnc(Cl)s1 [Compound 74] | 100% | 100% | 100% | 100% | – | – | – | – | – | – | –
6 | O=[N+]([O-])C(=Cc1cc(Cl)c(Cl)s1)C1=NCCN1Cc1ccc(Cl)nc1 [Compound 23] | 100% | 100% | 100% | 100% | – | – | – | – | – | – | –
7 | O=[N+]([O-])/C(=C/c1ccco1)C1=NCCN1Cc1ccc(Cl)nc1 [Compound 1, 2-chloro-5-((2-(2-(furan-2-yl)-1-nitrovinyl)-4,5-dihydroimidazol-1-yl)-methyl) pyridine] | – | – | – | – | 100% | 100% | 100% | 100% | – | – | –
8 | O=[N+]([O-])C(=Cc1cc(Cl)c(Cl)o1)C1=NCCN1Cc1ccc(Cl)nc1 [Compound 8] | 100% | 100% | 100% | 100% | – | – | – | – | – | – | –
9 | O=[N+]([O-])C(=Cc1oc(Br)cc1Br)C1=NCCCN1Cc1ccc(Cl)nc1 [Compound 56] | 100% | 100% | 100% | 100% | – | – | – | – | – | – | –
10 | CCc1ccc(C=C(C2=NCCCN2Cc2ccc(Cl)nc2)[N+](=O)[O-])o1 [Compound 59] | 57% | 84% | 86% | 100% | – | – | – | – | – | – | –
11 | C[N+]1=C(C(=Cc2cc(Cl)co2)[N+](=O)[O-])N(Cc2ccc(Cl)nc2)CC1.[Cl-] [Compound 249] | 100% | 100% | 100% | 100% | – | – | – | – | – | – | –
12 | O=[N+]([O-])C(=Cc1cc(Br)c(Br)o1)C1=NCCN1CC1CCOC1 (centres unmarked) [Compound 100] | 90% | 100% | 100% | 100% | – | – | – | – | – | – | –
13 | CC(=C(C1=NCCN1Cc1ccc(Cl)nc1)[N+](=O)[O-])c1ccc(Br)s1 [Compound 119] | 75% | 91% | 46% | 87% | – | – | – | – | – | – | –
14 | O=[N+]([O-])C(=Cc1cc(Cl)co1)C1=NCCCN1Cc1ccc(Cl)nc1 [Compound 51] | 100% | 100% | 100% | 100% | – | – | – | – | – | – | –
15 | O=[N+]([O-])C(=Cc1ccc(Cl)o1)C1=NCCN1Cc1ccc(Cl)nc1 [Compound 4] | 100% | 100% | 100% | 100% | – | – | – | – | – | – | –
16 | N#CC(=Cc1cc(Cl)c(Cl)s1)C1=NCCN1Cc1ccc(Cl)nc1 [Compound 149] | 94% | 100% | 97% | 100% | – | – | – | – | – | – | –
17 | C[N+]1=C(C(=Cc2oc(Cl)cc2Cl)[N+](=O)[O-])N(Cc2ccc(Cl)nc2)CC1.[Cl-] [Compound 252] | 100% | 100% | 100% | 100% | – | – | – | – | – | – | –
18 | C[N+]1=C(C(=Cc2ccc([N+](=O)[O-])o2)[N+](=O)[O-])N(Cc2ccc(Cl)nc2)CC1.[Cl-] [Compound 246] | 100% | 100% | 100% | 100% | – | – | – | – | – | – | –
19 | C[N+]1=C(C(=Cc2ccsc2)[N+](=O)[O-])N(Cc2cnc(Cl)s2)CC1.[Cl-] [Compound 281] | 100% | 100% | 100% | 100% | – | – | – | – | – | – | –
20 | O=[N+]([O-])C(=Cc1ccoc1)C1=NCCN1CC1CCOC1 (centres unmarked) [Compound 92] | 80% | 100% | 100% | 100% | – | – | – | – | – | – | –
21 | O=[N+]([O-])C(=Cc1oc(Cl)cc1Cl)C1=NCCCN1Cc1ccc(Cl)nc1 [Compound 54] | 100% | 100% | 100% | 100% | – | – | – | – | – | – | –
22 | O=[N+]([O-])/C(=C/c1cccs1)C1=NCCN1Cc1ccc(Cl)nc1 [Compound 16, 2-chloro-5-((2-(1-nitro-2-(thiophen-2-yl)vinyl)-4,5-dihydro-imidazol-1-yl)-methyl)pyridine] | – | – | – | – | 100% | 100% | 100% | 100% | – | – | –
23 | O=[N+]([O-])C(=Cc1ccc(CO)o1)C1=NCCN1Cc1cnc(Cl)s1 [Compound 82] | 100% | 100% | 100% | 100% | – | – | – | – | – | – | –
24 | O=[N+]([O-])C(=Cc1ccc(F)nc1)C1=NCCN1Cc1ccc(Cl)nc1 [Compound 41] | 89% | 87% | 100% | 100% | – | – | – | – | – | – | –
25 | C[N+]1=C(C(=Cc2ccco2)[N+](=O)[O-])N(Cc2ccc(Cl)nc2)CC1.[Cl-] [Compound 244] | 100% | 100% | 100% | 100% | – | – | – | – | – | – | –
26 | O=[N+]([O-])C(=Cc1cc(Br)co1)C1=NCCN1Cc1ccc(Cl)nc1 [Compound 7] | – | – | – | – | – | – | 100% | – | 100% | 100% | 100%
